US10266527B2, “T-box riboswitch-binding anti-bacterial compounds” (THE RESEARCH FOUNDATION FOR THE STATE UNIVERSITY OF NEW YORK, priority 2013, dated 2019)
≈ marks a conversion by molar mass, not a printed value.

Tests used:
Assay type in all cases: cell-based
S. aureus = experiment: Disc diffusion assay (DDA) of PKZ6 and PKZ18 analogs with S. aureus; conditions: Table 4, 150 μg/ml, ✓ = zone of inhibition observed
Text: (§1) The identity and purity of both PKZ 6 and 18 was confirmed by mass spectroscopy. Forty commercially available compounds chosen on the basis of initial in silico selections and similarity to our two hits were screened by disc diffusion assay (DDA) to determine their relative antibacterial activity with S. aureus. […] These 14 compounds were further evaluated by minimum inhibitory concentration assays (MIC)^41,42, and minimum bactericidal assays (MBC)^41 to confirm antibacterial activity, determine the concentration at which S. aureus growth is inhibited in liquid culture (MIC) and if they are acting as bacteriostatic or bactericidal agents (MBC). […] Representative embodiments are shown below.
All compounds were tested at a concentration of 150 μg/ml.

S. aureus ATCC 29213 [1] = experiment: Broth microdilution MIC; conditions: Table 5 analogs, triplicate experiments, N/O = not observed at concentrations tested (512-0.25 μg/mL); for MIC: Staphylococcus aureus, ATCC29213, read-out: S. aureus MIC
Text: as §1
Broth microdilution assays^77, 78 were performed with B. subtilis, and S. aureus to determine the lowest compound concentration inhibiting visible growth, i.e., minimum inhibitory concentration (MIC) of the 4 original compounds. […] The insolubility of the fourth compound may account for its lack of antibacterial activity. […] The MICs of each compound are moderate.
Strains were grown on trypticase soy agar (TSA) with 5% sheep blood at 37° C. for 24 hours. Five isolated colonies were used to inoculate 5 mL cation-adjusted Mueller-Hinton broth (CAMHB) contained in a 50 mL centrifuge tube. The resulting culture was incubated shaking at 200 rpm for 3 hours at 37° C. and then diluted in CAMHB until its turbidity matched that of a 0.5 McFarland standard (OD625 0.08-0.10). After the culture had been standardized against a 0.5 McFarland standard, it was diluted 1:10 in CAMHB and then 5 μL of this dilution was added to the appropriate wells of a 96-well, flat-bottomed tissue culture plate in which each row contained a twofold dilution series of a particular compound ranging in concentration from 0.25 μg/mL to 512 μg/mL. Each plate also included a sterility control well containing CAMHB to which standardized inoculum was not added and a growth control well containing CAMHB to which 5 μL standardized inoculum was added. […] With the exception of the sterility control well, all wells were inoculated within 15 minutes of inoculum preparation to ensure that the starting concentration of bacteria in each well was approximately 5×10^5 CFU/m L. A Tecan Sunrise microplate absorbance reader was used to measure the OD620 of each well before and after 20 h incubation at 37° C. MIC values were recorded as the lowest compound concentration at which no visible growth was observed after this incubation period.

S. aureus ATCC 29213 [2] = experiment: MBC determination; conditions: Table 5 analogs, triplicate experiments, N/O = not observed at concentrations tested (512-0.25 μg/mL)
Text: as §1
(§2) Following 24 h incubation of these subcultures at 37° C., MBC values were recorded as the lowest compound concentration at which no viable colonies were observed.

E. coli ATCC 25922 [3] = experiment: MBC determination; conditions: Table 5 analogs; triplicate experiments; N/O = not observed at concentrations tested (512-0.25 μg/mL)
Procedure: as §2

E. coli ATCC 25922 [4] = experiment: Broth microdilution MIC (Gram negative specificity control); conditions: Table 5 analogs, triplicate experiments, N/O = not observed at concentrations tested (512-0.25 μg/mL)

| Structure (SMILES) | ZOI observed (S. aureus) | MIC (S. aureus ATCC 29213 [1]) [µg/mL] | S. aureus (MBC) (S. aureus ATCC 29213 [2]) | other results |
| --- | --- | --- | --- | --- |
| O=c1cc(O)c2c(=O)n3c4c(cccc4c2o1)CCC3 [Compound 0611] | ✓ | – | – | – |
| O=C(NCCN1CCNCC1)C1=C(O)C2=CC=CC3CCN(C1=O)C23 (stereo not drawn) [Compound 0613] | ✓ | – | – | – |
| NCCNC(=O)c1c(O)c2cccc3c2n(c1=O)CCC3 [Compound 0615] | ✓ | – | – | – |
| CCCCc1ccc(-c2nc(NC(=O)C3CC=CCC3C(=O)O)sc2C)cc1 (stereo not drawn) [Compound 1805] | ✓ | – | – | – |
| CCCc1ccc(-c2nc(NC(=O)C3CC(C)=C(C)CC3C(=O)O)sc2C)cc1 (stereo not drawn) [Compound 1808] | ✓ | – | – | – |
| CC1=C(C)CC(C(=O)Nc2nc(-c3ccc(C)cc3)c(C)s2)C(C(=O)O)C1 (stereo not drawn) [Compound 1810] | ✓ | 256 (≈ 666 µM) | N/O | E. coli (MBC) (E. coli ATCC 25922 [3]): N/O; MIC (E. coli ATCC 25922 [4]; Escherichia coli, ATCC25922, read-out: E. coli MIC): 512 µg/mL (≈ 1330 µM) |
| O=C(O)C1C2CCC(C2)C1C(=O)Nc1nc(-c2cccs2)cs1 (stereo not drawn) [Compound 1813] | ✓ | – | N/O (N/O) | S. aureus MIC (S. aureus ATCC 29213 [1]): N/O (N/O); E. coli (MBC) (E. coli ATCC 25922 [3]): N/O (N/O); E. coli MIC (E. coli ATCC 25922 [4]): N/O (N/O) |
| O=C(O)C1C2CCC(C2)C1C(=O)Nc1nc(-c2ccc(F)cc2F)cs1 (stereo not drawn) [Compound 1819] | ✓ | 128 (≈ 338 µM) | – | MBC (S. aureus ATCC 29213 [2]; Staphylococcus aureus, ATCC29213, read-out: S. aureus (MBC)): 512 µg/mL (≈ 1350 µM) |
| C[C@@H]1CC[C@@H](C)[C@H](C(=O)Nc2nc(-c3ccc(Cl)cc3Cl)cs2)C1C(=O)O (stereo partly drawn) [Compound 1820] | ✓ | 64 (≈ 150 µM) | N/O | – |
